Paper PMC6409085, “Three odorant-binding proteins are involved in the behavioral response of Sogatella furcifera to rice plant volatiles” (PeerJ, 2019)
“And” between values parts separate entries of the source, which are not always exact repeats. Equal values may be shown once.

Experiments:
Assay in all cases: biochemical
Assay type in all cases: binding
SfurOBP1 = SfurOBP1 (Sogatella furcifera, UniProt V5T8N5); details: for Fluorescence competitive binding assay, fluorescence intensity: OBP1, three replicate columns
Procedure, shortened: (§1)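 In 50 mM Tris-HCl pH 7.4, odorants displace 1-NPN (2.0 µM) from 2.0 µM protein. Emission at 390–490 nm under 337 nm excitation is measured 2 min after competitor addition, in triplicate. Ki is obtained from IC50 and the 1-NPN dissociation constant.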

SfurOBP11 = SfurOBP11 (Sogatella furcifera, UniProt V5T6E3)
Procedure, shortened: as §1

SfurOBP2 = SfurOBP2 (Sogatella furcifera, UniProt V5T759)
Procedure, shortened: as §1

SfurOBP3 = SfurOBP3 (Sogatella furcifera, UniProt V5T818); details: for Fluorescence competitive binding assay, fluorescence intensity: OBP3, three replicate columns
Procedure, shortened: as §1

Sequence of SfurOBP3 (V5T818 entry or part of it): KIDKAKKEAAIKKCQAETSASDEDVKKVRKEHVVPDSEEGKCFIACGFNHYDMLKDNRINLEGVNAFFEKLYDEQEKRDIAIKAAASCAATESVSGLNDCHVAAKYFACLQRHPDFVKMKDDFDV
Sequence of SfurOBP11 (V5T6E3 entry or part of it): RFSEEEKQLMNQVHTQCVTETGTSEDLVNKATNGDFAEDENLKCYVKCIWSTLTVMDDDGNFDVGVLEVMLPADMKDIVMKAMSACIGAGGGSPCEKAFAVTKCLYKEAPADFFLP
Sequence of SfurOBP2 (V5T759 entry or part of it): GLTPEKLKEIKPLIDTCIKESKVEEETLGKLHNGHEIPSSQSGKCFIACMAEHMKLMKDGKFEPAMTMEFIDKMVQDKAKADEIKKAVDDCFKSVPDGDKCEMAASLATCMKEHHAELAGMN
Sequence of SfurOBP1 (V5T8N5 entry or part of it): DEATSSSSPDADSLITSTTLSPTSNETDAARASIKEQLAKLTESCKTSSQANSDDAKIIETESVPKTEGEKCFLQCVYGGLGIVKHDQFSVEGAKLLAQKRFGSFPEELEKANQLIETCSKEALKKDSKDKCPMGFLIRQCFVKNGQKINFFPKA

Fluorescence competitive binding assay, fluorescence intensity (SfurOBP1; ligand concentration 2 (μM)): 5137 and 5021 and 5229
Fluorescence competitive binding assay, fluorescence intensity (SfurOBP1; ligand concentration 4 (μM)): 5910 and 6306 and 5547
Fluorescence competitive binding assay, fluorescence intensity (SfurOBP1; ligand concentration 6 (μM)): 6300 and 6430 and 6367
Fluorescence competitive binding assay, fluorescence intensity (SfurOBP1; ligand concentration 8 (μM)): 6419 and 6500 and 6466
Fluorescence competitive binding assay, fluorescence intensity (SfurOBP1; ligand concentration 10 (μM)): 6532 and 6517 and 6502
Fluorescence competitive binding assay, fluorescence intensity (SfurOBP1; ligand concentration 12 (μM)): 6620 and 6292 and 6471
Fluorescence competitive binding assay, fluorescence intensity (SfurOBP1; ligand concentration 14 (μM)): 6713 and 6503 and 6353
Fluorescence competitive binding assay, fluorescence intensity (SfurOBP1; ligand concentration 16 (μM)): 6541 and 6507 and 6533
Fluorescence competitive binding assay, fluorescence intensity (SfurOBP1; ligand concentration 18 (μM)): 7558 and 7106 and 6654
Fluorescence competitive binding assay, fluorescence intensity (SfurOBP1; ligand concentration 20 (μM)): 6949 and 7724 and 7337
IC50 (SfurOBP1; SfurOBP1, protein and 1-NPN both 2.0 µM, competitor 2-20 µM, read-out: IC50): > 20 µM
IC50 (SfurOBP11; SfurOBP11, protein and 1-NPN both 2.0 µM, competitor 2-20 µM, read-out: IC50): > 20 µM
Fluorescence intensity, fluorescence competitive binding assay, OBP11 (SfurOBP11; ligand concentration 2, replicate 1): 21809
Fluorescence intensity, fluorescence competitive binding assay, OBP11 (SfurOBP11; ligand concentration 2, replicate 2): 24436
Fluorescence intensity, fluorescence competitive binding assay, OBP11 (SfurOBP11; ligand concentration 2, replicate 3): 21028
Fluorescence intensity, fluorescence competitive binding assay, OBP11 (SfurOBP11; ligand concentration 4, replicate 1): 21555
Fluorescence intensity, fluorescence competitive binding assay, OBP11 (SfurOBP11; ligand concentration 4, replicate 2): 21532
Fluorescence intensity, fluorescence competitive binding assay, OBP11 (SfurOBP11; ligand concentration 4, replicate 3): 20733
Fluorescence intensity, fluorescence competitive binding assay, OBP11 (SfurOBP11; ligand concentration 6, replicate 1): 20973
Fluorescence intensity, fluorescence competitive binding assay, OBP11 (SfurOBP11; ligand concentration 6, replicate 2): 20501
Fluorescence intensity, fluorescence competitive binding assay, OBP11 (SfurOBP11; ligand concentration 6, replicate 3): 20737
Fluorescence intensity, fluorescence competitive binding assay, OBP11 (SfurOBP11; ligand concentration 8, replicate 1): 20324
Fluorescence intensity, fluorescence competitive binding assay, OBP11 (SfurOBP11; ligand concentration 8, replicate 2): 20139
Fluorescence intensity, fluorescence competitive binding assay, OBP11 (SfurOBP11; ligand concentration 8, replicate 3): 20508
Fluorescence intensity, fluorescence competitive binding assay, OBP11 (SfurOBP11; ligand concentration 10, replicate 1): 20121
Fluorescence intensity, fluorescence competitive binding assay, OBP11 (SfurOBP11; ligand concentration 10, replicate 2): 20422
Fluorescence intensity, fluorescence competitive binding assay, OBP11 (SfurOBP11; ligand concentration 10, replicate 3): 20353
Fluorescence intensity, fluorescence competitive binding assay, OBP11 (SfurOBP11; ligand concentration 12, replicate 1): 19850
Fluorescence intensity, fluorescence competitive binding assay, OBP11 (SfurOBP11; ligand concentration 12, replicate 2): 19980
Fluorescence intensity, fluorescence competitive binding assay, OBP11 (SfurOBP11; ligand concentration 12, replicate 3): 19737
Fluorescence intensity, fluorescence competitive binding assay, OBP11 (SfurOBP11; ligand concentration 14, replicate 1): 21701
Fluorescence intensity, fluorescence competitive binding assay, OBP11 (SfurOBP11; ligand concentration 14, replicate 2): 22333
Fluorescence intensity, fluorescence competitive binding assay, OBP11 (SfurOBP11; ligand concentration 14, replicate 3): 21069
Fluorescence intensity, fluorescence competitive binding assay, OBP11 (SfurOBP11; ligand concentration 16, replicate 1): 21665
Fluorescence intensity, fluorescence competitive binding assay, OBP11 (SfurOBP11; ligand concentration 16, replicate 2): 22169
Fluorescence intensity, fluorescence competitive binding assay, OBP11 (SfurOBP11; ligand concentration 16, replicate 3): 22138
Fluorescence intensity, fluorescence competitive binding assay, OBP11 (SfurOBP11; ligand concentration 18, replicate 1): 22525
Fluorescence intensity, fluorescence competitive binding assay, OBP11 (SfurOBP11; ligand concentration 18, replicate 2): 23830
Fluorescence intensity, fluorescence competitive binding assay, OBP11 (SfurOBP11; ligand concentration 18, replicate 3): 23178
Fluorescence intensity, fluorescence competitive binding assay, OBP11 (SfurOBP11; ligand concentration 20, replicate 1): 23218
Fluorescence intensity, fluorescence competitive binding assay, OBP11 (SfurOBP11; ligand concentration 20, replicate 2): 23600
Fluorescence intensity, fluorescence competitive binding assay, OBP11 (SfurOBP11; ligand concentration 20, replicate 3): 23432
IC50 (SfurOBP2; SfurOBP2, protein and 1-NPN both 2.0 µM, competitor 2-20 µM, read-out: IC50): 17.4 µM
Fluorescence competitive binding assay, OBP2 (raw fluorescence reading) (SfurOBP2; ligand concentration 2 (unit not given), replicate column 1 of 3): 13495
Fluorescence competitive binding assay, OBP2 (raw fluorescence reading) (SfurOBP2; ligand concentration 2 (unit not given), replicate column 2 of 3): 16165
Fluorescence competitive binding assay, OBP2 (raw fluorescence reading) (SfurOBP2; ligand concentration 2 (unit not given), replicate column 3 of 3): 17504
Fluorescence competitive binding assay, OBP2 (raw fluorescence reading) (SfurOBP2; ligand concentration 4 (unit not given), replicate column 1 of 3): 14292
Fluorescence competitive binding assay, OBP2 (raw fluorescence reading) (SfurOBP2; ligand concentration 4 (unit not given), replicate column 2 of 3): 14770
Fluorescence competitive binding assay, OBP2 (raw fluorescence reading) (SfurOBP2; ligand concentration 4 (unit not given), replicate column 3 of 3): 18258
Fluorescence competitive binding assay, OBP2 (raw fluorescence reading) (SfurOBP2; ligand concentration 6 (unit not given), replicate column 1 of 3): 13188
Fluorescence competitive binding assay, OBP2 (raw fluorescence reading) (SfurOBP2; ligand concentration 6 (unit not given), replicate column 2 of 3): 14373
Fluorescence competitive binding assay, OBP2 (raw fluorescence reading) (SfurOBP2; ligand concentration 6 (unit not given), replicate column 3 of 3): 14976
Fluorescence competitive binding assay, OBP2 (raw fluorescence reading) (SfurOBP2; ligand concentration 8 (unit not given), replicate column 1 of 3): 12682
Fluorescence competitive binding assay, OBP2 (raw fluorescence reading) (SfurOBP2; ligand concentration 8 (unit not given), replicate column 2 of 3): 13401
Fluorescence competitive binding assay, OBP2 (raw fluorescence reading) (SfurOBP2; ligand concentration 8 (unit not given), replicate column 3 of 3): 14572
Fluorescence competitive binding assay, OBP2 (raw fluorescence reading) (SfurOBP2; ligand concentration 10 (unit not given), replicate column 1 of 3): 12390
Fluorescence competitive binding assay, OBP2 (raw fluorescence reading) (SfurOBP2; ligand concentration 10 (unit not given), replicate column 2 of 3): 12956
Fluorescence competitive binding assay, OBP2 (raw fluorescence reading) (SfurOBP2; ligand concentration 10 (unit not given), replicate column 3 of 3): 13308
Fluorescence competitive binding assay, OBP2 (raw fluorescence reading) (SfurOBP2; ligand concentration 12 (unit not given), replicate column 1 of 3): 11320
Fluorescence competitive binding assay, OBP2 (raw fluorescence reading) (SfurOBP2; ligand concentration 12 (unit not given), replicate column 2 of 3): 12682
Fluorescence competitive binding assay, OBP2 (raw fluorescence reading) (SfurOBP2; ligand concentration 12 (unit not given), replicate column 3 of 3): 13112
Fluorescence competitive binding assay, OBP2 (raw fluorescence reading) (SfurOBP2; ligand concentration 14 (unit not given), replicate column 1 of 3): 11586
Fluorescence competitive binding assay, OBP2 (raw fluorescence reading) (SfurOBP2; ligand concentration 14 (unit not given), replicate column 2 of 3): 11754
Fluorescence competitive binding assay, OBP2 (raw fluorescence reading) (SfurOBP2; ligand concentration 14 (unit not given), replicate column 3 of 3): 12906
Fluorescence competitive binding assay, OBP2 (raw fluorescence reading) (SfurOBP2; ligand concentration 16 (unit not given), replicate column 1 of 3): 10605
Fluorescence competitive binding assay, OBP2 (raw fluorescence reading) (SfurOBP2; ligand concentration 16 (unit not given), replicate column 2 of 3): 10448
Fluorescence competitive binding assay, OBP2 (raw fluorescence reading) (SfurOBP2; ligand concentration 16 (unit not given), replicate column 3 of 3): 11282
Fluorescence competitive binding assay, OBP2 (raw fluorescence reading) (SfurOBP2; ligand concentration 18 (unit not given), replicate column 1 of 3): 14498
Fluorescence competitive binding assay, OBP2 (raw fluorescence reading) (SfurOBP2; ligand concentration 18 (unit not given), replicate column 2 of 3): 14899
Fluorescence competitive binding assay, OBP2 (raw fluorescence reading) (SfurOBP2; ligand concentration 18 (unit not given), replicate column 3 of 3): 13250
Fluorescence competitive binding assay, OBP2 (raw fluorescence reading) (SfurOBP2; ligand concentration 20 (unit not given), replicate column 1 of 3): 13545
Fluorescence competitive binding assay, OBP2 (raw fluorescence reading) (SfurOBP2; ligand concentration 20 (unit not given), replicate column 2 of 3): 12591
Fluorescence competitive binding assay, OBP2 (raw fluorescence reading) (SfurOBP2; ligand concentration 20 (unit not given), replicate column 3 of 3): 11415
Fluorescence competitive binding assay, fluorescence intensity (SfurOBP3; ligand concentration 2): 69046 and 56769 and 63691
Fluorescence competitive binding assay, fluorescence intensity (SfurOBP3; ligand concentration 4): 61024 and 72407 and 63576
Fluorescence competitive binding assay, fluorescence intensity (SfurOBP3; ligand concentration 6): 62953 and 54664 and 55739
Fluorescence competitive binding assay, fluorescence intensity (SfurOBP3; ligand concentration 8): 48630 and 46017 and 57385
Fluorescence competitive binding assay, fluorescence intensity (SfurOBP3; ligand concentration 10): 48455 and 41384 and 49192
Fluorescence competitive binding assay, fluorescence intensity (SfurOBP3; ligand concentration 12): 44417 and 51591 and 51023
Fluorescence competitive binding assay, fluorescence intensity (SfurOBP3; ligand concentration 14): 42917 and 40156 and 40042
Fluorescence competitive binding assay, fluorescence intensity (SfurOBP3; ligand concentration 16): 37264 and 50015 and 45340
Fluorescence competitive binding assay, fluorescence intensity (SfurOBP3; ligand concentration 18): 66503 and 59244 and 47400
Fluorescence competitive binding assay, fluorescence intensity (SfurOBP3; ligand concentration 20): 55843 and 55740 and 43544
IC50 (SfurOBP3; SfurOBP3, protein and 1-NPN both 2.0 µM, competitor 2-20 µM, read-out: IC50): > 20 µM
Compound: CCCCCCCCCCCCCCCC [n-hexadecane]
